Assay results reported in patent US9668962B2, “Compositions and related methods for oral wellness” (NOWSystem, Inc., priority 2012, dated 2017).

Columns and labels:
[1] = tested on: P. intermedia; test: zone of inhibition on blood agar, drop technique and line method (Example 2); format: cell-based, Prevotella intermedia; conditions: control, 3 ul of 20%; after 3 days of incubation
Experimental: Experimental Design: Blood agar (for the 3 anaerobic bacteria, 1 facultative bacterium and 1 aerobic yeast; Fisher Scientific) plates were individually swabbed with fresh 24 h broth cultures of C. albicans, P. gingivalis, P. intermedia, F. nucleatum and S. mutans to provide a confluent lawn of microbial growth. Five minutes after swabbing the plates (to allow the inoculum to absorb into the agar), the test and control specimens ([…] adhere, in the case of the undiluted sera) into the agar. Assays were conducted in duplicate and undiluted and 1:5 and 1:10 dilutions of the solutions and sterile saline (negative control) were used. The plates were incubated agar-side up at 37° C. in a GasPak anaerobic jar or in 5% CO2 for 72 h. Plates were examined at 72 h for zones of inhibition of growth of the microbes. The diameter of each zone was measured in mm. The zones of inhibition of each dilution sample were compared to the zones of control saline without antimicrobial components. If the zones of the solutions were the same size (or smaller) than the inhibition zones from the control saline than there was judged no inhibition of antimicrobial activity by the antimicrobial solutions. Conversely, if the zones of the solutions were larger than the inhibition zones from the control saline than there was judged significant antimicrobial activity by the solutions. […]

[2] = tested on: S. mutans; test: zone of inhibition on blood agar, drop technique and line method (Example 3); format: cell-based, Streptococcus mutans; conditions: control spot, dilution not given; after 5 days of incubation
Experimental: (§1) Experimental Design: Blood agar (for the 3 anaerobic bacteria, 3 facultative bacteria and 1 aerobic yeast; Fisher Scientific) plates were individually swabbed with fresh 24 h broth cultures of C. rectus, Aggregatibacter actinomycetemcomitans (A.a), C. albicans, P. gingivalis, P. intermedia, F. nucleatum and S. mutans to provide a confluent lawn of microbial growth. Five minutes after swabbing the plates (to allow the inoculum to absorb into the agar), the test and control specimens (see below) were aseptically pipetted (5 ul) onto designated places on the plates and allowed to adsorb (or adhere, in the case of the undiluted sera) into the agar. Assays were conducted in duplicate and undiluted and 1:5 and 1:10 dilutions of the solutions and sterile saline (negative control) and chlorhexidine (CHX) were used. […] The diameter of each zone was measured in mm. The zones of inhibition of each dilution sample were compared to the zones of control saline without antimicrobial components. If the zones of the solutions were the same size (or smaller) than the inhibition zones from the control saline than there was judged no inhibition of antimicrobial activity by the antimicrobial solutions. Conversely, if the zones of the solutions were larger than the inhibition zones from the control saline than there was judged significant antimicrobial activity by the solutions. […]

[3] = tested on: F. nucleatum; test: zone of inhibition on blood agar, drop technique and line method (Example 2); format: cell-based, Fusobacterium nucleatum; conditions: control, 3 ul of 20%; after 3 days of incubation
Experimental: (§2) Experimental Design: Blood agar (for the 3 anaerobic bacteria, 1 facultative bacterium and 1 aerobic yeast; Fisher Scientific) plates were individually swabbed with fresh 24 h broth cultures of C. albicans, P. gingivalis, P. intermedia, F. nucleatum and S. mutans to provide a confluent lawn of microbial growth. […] Assays were conducted in duplicate and undiluted and 1:5 and 1:10 dilutions of the solutions and sterile saline (negative control) were used. The plates were incubated agar-side up at 37° C. in a GasPak anaerobic jar or in 5% CO2 for 72 h. Plates were examined at 72 h for zones of inhibition of growth of the microbes. The diameter of each zone was measured in mm. The zones of inhibition of each dilution sample were compared to the zones of control saline without antimicrobial components. If the zones of the solutions were the same size (or smaller) than the inhibition zones from the control saline than there was judged no inhibition of antimicrobial activity by the antimicrobial solutions. Conversely, if the zones of the solutions were larger than the inhibition zones from the control saline than there was judged significant antimicrobial activity by the solutions. It was anticipated that there will be significant inhibition of microbial growth by at least some of the antimicrobial wheat grass products. […]

[4] = tested on: C. albicans; test: zone of inhibition on blood agar, drop technique and line method (Example 3); format: cell-based, Candida albicans; conditions: control spot, dilution not given; after 5 days of incubation
Experimental: as §1

[5] = tested on: P. gingivalis; test: zone of inhibition on blood agar, drop technique and line method (Example 2); format: cell-based, Porphyromonas gingivalis; conditions: control, 3 ul of 20%; after 3 days of incubation
Experimental: Experimental Design: Blood agar (for the 3 anaerobic bacteria, 1 facultative bacterium and 1 aerobic yeast; Fisher Scientific) plates were individually swabbed with fresh 24 h broth cultures of C. albicans, P. gingivalis, P. intermedia, F. nucleatum and S. mutans to provide a confluent lawn of microbial growth. Five minutes after swabbing the plates (to allow the inoculum to absorb into the agar), the test and control specimens ([…]) onto designated places on the plates and allowed to adsorb (or adhere, in the case of the undiluted sera) into the agar. Assays were conducted in duplicate and undiluted and 1:5 and 1:10 dilutions of the solutions and sterile saline (negative control) were used. The plates were incubated agar-side up at 37° C. in a GasPak anaerobic jar or in 5% CO2 for 72 h. Plates were examined at 72 h for zones of inhibition of growth of the microbes. The diameter of each zone was measured in mm. The zones of inhibition of each dilution sample were compared to the zones of control saline without antimicrobial components. If the zones of the solutions were the same size (or smaller) than the inhibition zones from the control saline than there was judged no inhibition of antimicrobial activity by the antimicrobial solutions. […]

[6] = tested on: P. intermedia; test: zone of inhibition on blood agar, drop technique and line method (Example 3); format: cell-based, Prevotella intermedia; conditions: control spot, dilution not given; after 5 days of incubation
Experimental: as §1

[7] = tested on: F. nucleatum; test: as above; format: cell-based, Fusobacterium nucleatum; conditions: control spot, dilution not given; after 5 days of incubation
Experimental: as §1

[8] = tested on: C. rectus; test: as above; format: cell-based, Campylobacter rectus; conditions: control spot, dilution not given; after 5 days of incubation
Experimental: as §1, with “The” for “The diameter of each zone was measured in mm. The”

[9] = tested on: S. mutans; test: zone of inhibition on blood agar, drop technique and line method (Example 2); format: cell-based, Streptococcus mutans; conditions: control, 3 ul of 20%; after 3 days of incubation
Experimental: as §2

[10] = tested on: C. rectus, Aggregatibacter actinomycetemcomitans (A.a), C. albicans, P. gingivalis, P. intermedia, F. nucleatum and S. mutans; test: in vitro antimicrobial activity, summary over the seven microbes (Example 3); format: cell-based; conditions: overall summary of Example 3
Experimental: Experimental Design: Blood agar (for the 3 anaerobic bacteria, 3 facultative bacteria and 1 aerobic yeast; Fisher Scientific) plates were individually swabbed with fresh 24 h broth cultures of C. rectus, Aggregatibacter actinomycetemcomitans (A.a), C. albicans, P. gingivalis, P. intermedia, F. nucleatum and S. mutans to provide a confluent lawn of microbial growth. Five minutes after swabbing the plates (to allow the inoculum to absorb into the agar), the test and control specimens (see below) were aseptically pipetted (5 ul) onto designated places on the plates and allowed to adsorb (or adhere, in the case of the undiluted sera) into the agar. Assays were conducted in duplicate and undiluted and 1:5 and 1:10 dilutions of the solutions and sterile saline (negative control) and chlorhexidine (CHX) were used. The plates were incubated agar-side up at 37° C. in a GasPak anaerobic jar or in 5% CO2 for 72 h. Plates were examined at 72 h for zones of inhibition of growth of the microbes. The diameter of each zone was measured in mm. The zones of inhibition of each dilution sample were compared to the zones of control saline without antimicrobial components. If the zones of the solutions were the same size (or smaller) than the inhibition zones from the control saline than there was judged no inhibition of antimicrobial activity by the antimicrobial solutions. […]

[11] = tested on: Aggregatibacter actinomycetemcomitans (A.a); test: zone of inhibition on blood agar, drop technique and line method (Example 3); format: cell-based; conditions: control spot, dilution not given; after 5 days of incubation
Experimental: as §1

[12] = tested on: P. gingivalis; test: as above; format: cell-based, Porphyromonas gingivalis; conditions: control spot, dilution not given; after 5 days of incubation
Experimental: as §1

Compound: [H]/N=C(\N/C(=N/[H])NCCCCCCNC(=N)NC(=N)Nc1ccc(Cl)cc1)Nc1ccc(Cl)cc1 [Chlorhexidine, chlorhexidine]
- zone of inhibition [1]: 24 mm
- diameter of zone of inhibition [2]: 16 mm
- zone of inhibition [3]: 40 mm
- circumference of zone of inhibition [4]: 20 mm
- zone of inhibition [5]: 25 mm
- diameter of zone of inhibition [6]: 20 mm
- circumference of zone of inhibition [7]: 15 mm
- circumference of zone of inhibition [8]: 16 mm
- zone of inhibition [9]: 19 mm
- inhibition of growth of the seven species, in words [10]: inhibited the microbial growth of each species
- circumference of zone of inhibition [11]: 11 mm
- circumference of zone of inhibition [12]: 14 mm
